Source: patent publication US8076449B2, “Therapeutic agents of colivelin for neurodegenerative diseases” (Tomohiro Chiba, priority 2004, dated 2011)
Entries after “also recorded” stand apart in the source; their conditions may differ. Ends that are not written are not given here.

Tests used:
[1] = system: F11 cells transformed with M146L-PS1; test: Neuronal cell death induced by M146L-PS1 gene, Trypan blue exclusion assay; format: cell-based, rat/mouse hybrid; conditions: M146L-PS1, 72 hours after transformation
Method: (§1) F11 cell, the hybrid cell of rat embryonic day 13 (E13) primary cultured neuronal cell with mouse neuroblastoma NTG18 cell, was cultured in Ham's F-12 medium (Life Technologies, Gaithersburg, Md.) containing 18% FBS (Hyclone, Logan, Utah) and antibiotics as previously reported (Platika D, et al., 1985, Proc Natl Acad Sci USA 82: 3499-3503; Yamatsuji T, et al., 1996, Science 272: 1349-1352; Huang P, et al., 2000, Mol Hum Reprod 6: 1069-1078; and Niikura T, et al., 2001, J Neuroscience, 21: 1902-1910).
(§2) (i) Test of Neuronal Cell Death Induced by M146L-PS1 or G93R-SOD1 Gene
The F11 cells (7×10^4 cells/well, 6-well plate, 12- to 16-hour culture in Ham's F-12 (18% FBS) medium) were transformed with M146L-PS1 or G93R-SOD1 gene by lipofection (0.5 μg of cDNA; 1 μl of LipofectAMINE; 2 μl of PLUS Reagent) under serum-free conditions for 3 hours and cultured for 2 hours in Ham's F-12 (18% FBS) medium. The medium was replaced by Ham's F-12 (10% FBS) in the presence or absence of varying concentrations (100 aM, 1 fM, 10 fM, 100 fM, 1 pM, 10 pM, 100 pM, 1 nM, 10 nM, or 100 nM) of colivelin or AGA-CBR-HNG17 peptides. After 72 hours of the transformation, cell mortality was measured by Trypan blue exclusion assay as previously reported (Hashimoto Y, et al., 2001, J Neurosci 21: 9235-9245; and Hashimoto Y, et al, 2001, Proc Natl Acad Sci USA 98: 6336-6341). […]

[2] = system: F11 cells transformed with G93R-SOD1; test: Neuronal cell death induced by G93R-SOD1 gene, Trypan blue exclusion assay; format: cell-based, rat/mouse hybrid
Method: as §1, §2
The F11 cells (7×10^4 cells/well, 6-well plate, 12- to 16-hour culture in Ham's F-12 (18% FBS) medium) were transformed with M146L-PS1 or G93R-SOD1 gene by lipofection (0.5 μg of cDNA; 1 μl of LipofectAMINE; 2 μl of PLUS Reagent) under serum-free conditions for 3 hours and cultured for 2 hours in Ham's F-12 (18% FBS) medium. […] After 72 hours of the transformation, cell mortality was measured by Trypan blue exclusion assay as previously reported (Hashimoto Y, et al., 2001, J Neurosci 21: 9235-9245; and Hashimoto Y, et al, 2001, Proc Natl Acad Sci USA 98: 6336-6341).
ADNF has already been reported to protect neurons from toxicity caused by SOD1 mutations. […] After 72 hours of the transformation, cell mortality was measured by Trypan blue exclusion assay (FIG. 3).

G93A-SOD1 Tg mice = test: Motor performance (rotarod), onset and survival test with ALS model animal, icv administration (Example 3); format: in vivo, mouse
From the text: Transgenic (Tg) mice (hereinafter, referred to as “G93A-SOD1 Tg mice”) expressing human FALS-associated SOD1 mutant gene with a mutation (G93A) from Gly to Ala at 93 position are the best-established mouse model of ALS (Gurney M E, et al., 1994, Science 264: 1772-1775; and Gurney M E, et al., 1997, J Neurol Sci 152 Suppl 1: S67-73). The G93A-SOD1 Tg mice manifest symptoms quite similar to human ALS after normal birth and rapidly result in death in all cases. The G93A-SOD1 Tg mice, which have the onset of the regression of motor neurons similar clinically and pathologically to that in human ALS, have been known so far to be the most excellent model of ALS throughout the world and employed for identifying effective candidate drugs for ALS patients.
The model mice were used to confirm the in vivo effect of colivelin against neurotoxicity caused by G93A-SOD1.
The G93A-SOD1 Tg mice were purchased from Jackson Laboratories (Bar Harbor, Me.). The G93A-SOD1 Tg mice were kept as hemizygote mice by the mating thereof with C57BL/6J mice (CLEA Japan, Inc). The mice were raised in an SPF room (specific pathogen-free animal facility; 23±1° C., 55±5% humidity) in the 12-hour light/12-hour dark cycle (7:00 AM-7:00 PM). The mice were freely fed with gamma ray-irradiated Picolab Rodent Diet 20 (PMI Feeds Inc. St. Louis, Mo.) and sodium hyposulfite (5 ppm)-containing aseptic deionized distilled water.
The G93A-SOD1 Tg mice at 10 weeks of age were put under anesthesia by the intraperitoneal injection of 10% Nembutal (sodium pentobarbital; 60 mg/kg). A hole was made on the cranial bone with a drill on a sterotaxic surgery apparatus to aseptically transplant the C315GS-4 cannula system for mouse (Plastics One Inc., Roanoke, Va.) to the mouse left lateral ventricle. The cannula was fixed with a surgical adhesive and dental cement.
The mice at 80 days of age were divided at random to a saline (control)-administered group (n=7), 100 fmol colivelin-administered group (n=6), 10 pmol colivelin-administered group (n=7), 1 nmol colivelin-administered group (n=7), and 30 nmol ADNF-administered group (n=5). Until the end of the experiment, the control group received the intracerebroventricular (icv) injection of 3 μl of saline each day, while the colivelin-administered groups and the ADNF-administered group received the icy injection of 3 μl of colivelin (100 f mol, 10 pmol, or 1 nmol) and 3 μI of 30 nmol ADNF, respectively. In this context, colivelin and ADNF were separately dissolved in a saline for the injection. The injection was performed with the cannula in C315IS-4 connected to Hamilton syringe through a cannula tube (C232, PESO/Thin wall, Plastic One).
The motor function (motor performance) was evaluated weekly with a rotarod (CLEA Japan Inc). After the cannulation, the mice were acclimated to the rotarod for 2 days. The mice were placed onto a rotating rod at a speed of 5 rpm, and the time for which each mouse could remain on the rod was automatically detected. The test was conducted according to the protocol wherein the test was completed as a score of 7 minutes if the mouse remained on the rod for 7 minutes (Li M, et al., 2000, Science 288: 335-339; and Kaspar B K, et al., 2003, Science 301: 839-842). Disease onset was defined as the first day when the mouse could not remain on the rotarod for 7 minutes.
Death was defined when the mouse was unable to right itself within 30 seconds after being placed on its back (Li M, et al., op. cit).

[3] = 100 fmol colivelin icv each day

In the case of “PAGASRLLLLTGEIDLP [AGA-C8R-HNG17, Pro-Ala-Gly-Ala-Ser-Arg-Leu-Leu-Leu-Leu-Thr-Gly-Glu-Ile-Asp-Leu-Pro, reference compound]”, the “concentration of complete protection against cell death induced by mutant PS1” value [1] is reported as 10 pM and the “neuroprotective effect on cell death induced by SOD1 mutant” value ([2]; varying concentrations 100 aM to 100 nM) is reported as “could not protect; also recorded: not observed”.

For SALLRSIPA [ADNF, reference compound], the mean survival days (G93A-SOD1 Tg mice; 30 nmol ADNF icv each day) was 145.0 days and the “time up to which motor function was maintained (rotarod)” value (G93A-SOD1 Tg mice; 30 nmol ADNF icv each day) was “approximately 130 days”.

SALLRSIPAPAGASRLLLLTGEIDLP [colivelin] was tested, and the “concentration completely suppressing cell death induced by mutant PS1” value [1] was 100 fM, the “concentration completely suppressing cell death induced by G93R-SOD1” value ([2]; 72 hours after transformation) was 1 pM and the mean survival days (G93A-SOD1 Tg mice; 10 pmol colivelin icv each day) was 159.4 days. For the same sequence, the “prolongation of life span” value (G93A-SOD1 Tg mice; 10 pmol colivelin icv each day, versus control) was 11.7%, the “delay of the disease onset” value (G93A-SOD1 Tg mice; 1 nmol colivelin icv each day) was “approximately 17 day” and the mean survival days (G93A-SOD1 Tg mice; 1 nmol colivelin icv each day) was 156.7 days. The “protective action on motor function (rotarod)” value (G93A-SOD1 Tg mice; 1 nmol colivelin icv each day) was “most potent protective action”, the mean survival days (G93A-SOD1 Tg mice; [3]) was 153.3 days and the “time of deterioration of motor function (rotarod)” value (G93A-SOD1 Tg mice; [3]) was “approximately 120 days”. For the same sequence, the “recovery of motor function” value (G93A-SOD1 Tg mice; experiments using ALS model mice (summary statement)) was “approximately 70%”.
